The values that follow come from EP0287988A2, “Pyrrole aldehydes, their preparation and use” (CASSELLA Aktiengesellschaft, priority 1987, dated 1988).

The subject of this experiment is scopolamininduzierten Amnesie. In words: Passive avoidance test, scopolamine-induced amnesia (light-dark box, foot shock, latency after 24 h). The class given is in vivo, Mäuse. The settings on record: male mice, scopolamine hydrobromide 3 mg/kg i.p. The protocol: Die Testapparatur ist eine Hell-Dunkel-Box mit elektrifizierbarem Gitterboden im dunklen Teil.
55 Minuten nach Verabreichung von Kontroll-und Präparatinjektion werden unerfahrene männliche Mäuse mit Scopolaminhydrobromid (3 mg/kg i.p.) behendelt. 5 Minuten später werden die Mäuse in den hellen Teil der Box gesetzt. Nach dem Überwechseln in den drunklen Teil der Box erhalten sie einen ihnen unangenehmen elektrischen Fußschock. Nach 24 Stunden wird jede Maus einmal in den hellen Teil der Testapparatur gesetzt und die Verweildauer (max. 180 sec.) gemessen. […] […] Die Ergebnisse sind in Tabelle 2 angegeben.

“1-(Aminocarbony(methyl)-2,5-dimethylpyrrol-3-aldehyd [Beispiel 13]”: the “Prozentuale Abschwächung der scopolamininduzierten Amnesie” value (Dosis 30 mg/kg p.o., latency measured after 24 h (max. 180 sec)) was 146%.

Consider `NC(=O)CN1CCCC1=O` [Piracetam], for which, where the note is “Dosis 60 mg/kg p.o.”, the “prozentuale Abschwächung” value is recorded as 100%.
